{"source": "patent US6737429B2", "about": "“Pyrrole derivatives” (Hoffmann-La Roche Inc., priority 2000, dated 2004)", "key": {"HIV-1 RT": {"biological_target": "HIV-1 RT (Human immunodeficiency virus type 1 group M subtype B, UniProt P04585)", "test": "HIV-1 Reverse Transcriptase Assay: Inhibitor IC50 Determination", "format": "biochemical", "details": "purified recombinant enzyme, poly(rA)/oligo(dT)16 template-primer, 37° C. 30 min", "protocol": "HIV-1 Reverse Transcriptase Assay: Inhibitor IC50 Determination.\nHIV-1 RT assay was carried out in 96-well Millipore filtermat NOB50 plates using purified recombinant enzyme and a poly(rA)/oligo(dT)16 template-primer in a total volume of 50 μL. The assay constituents were 50 mM Tris/HCl, 50 mM NaCl, 1 mM EDTA, 6 mM MgCl2, 5 μM dTTP, 0.1 μCi [^3H] dTTP, 5 μg/ml poly (rA) pre annealed to 2.5 μg/ml oligo (dT)16 and a range of inhibitor concentrations in a final concentration of 10% DMSO. Reactions were initiated by adding 5 nM HIV-1 RT and after incubation at 37° C. for 30 min, they were stopped by the addition of 50 μl ice cold 20% TCA and allowed to precipitate at 4° C. for 30 min. The precipitates were collected by applying vacuum to the plate and sequentially washing with 2×200 μl of 10% TCA and 2×200 μl 70% ethanol. Finally the plates were dried and radioactivity counted in a Wallac Microbeta 1450 after the addition of 15 μl scintillation fluid per well. IC50's were calculated by plotting % inhibition versus log10 inhibitor concentrations."}, "[1]": {"system": "HXB2-strain of HIV in MT4 cells", "test": "Antiviral assay: protection of HIV-infected MT4 cells from cell-death (MTT)", "format": "cell-based", "details": "Human immunodeficiency virus 1, 120 h; MT4 cells infected with HXB2-strain of HIV, 5 d, MTT viability", "protocol": "Anti-HIV antiviral activity was assessed using an adaptation of the method of Pauwels et al. {Pauwels et al., 1988, J Virol Methods 20:309-321}. The method is based on the ability of compounds to protect HIV-infected T lymphoblastoid cells (MT4 cells) from cell-death mediated by the infection. The endpoint of the assay was calculated as the concentration of compound at which the cell viability of the culture was preserved by 50% (‘50% inhibitory concentration’, IC50). The cell viability of a culture was determined by the uptake of soluble, yellow 3-[4,5-dimethylthiazol-2-yl]-2,5-diphenyltetrazolium bromide (MTT) and its reduction to a purple insoluble formazan salt. After solubilization, spectrophotometric methods were employed to measure the amount of formazan product.\nMT4 cells were prepared to be in logarithmic-phase growth and a total of 2×10^6 cells infected with the HXB2-strain of HIV at a multiplicity of 0.0001 infectious units of virus per cell in a total volume of between 200-500 microliters. The cells were incubated with virus for one h at 37° C. before removal of virus. The cells are then washed in 0.01 M phosphate buffered saline, pH 7.2 before being resuspensed in culture medium for incubation in culture with serial dilutions of test compound. The culture medium used was RPMI 1640 without phenol red, supplemented with penicillin, streptomycin, L-glutamine and 10% fetal calf serum (GM10).\nTest compounds were prepared as 2 mM solutions in dimethyl sulphoxide (DMSO). Four replicate, serial 2-fold dilutions in GM10 were then prepared and 50 microliters amounts placed in 96-well plates over a final nanomolar concentration range of 625-1.22. Fifty microliters GM10 and 3.5×10^4 infected cells were then added to each well. Control cultures containing no cells (blank), uninfected cells (100% viability; 4 replicates) and infected cells without compound (total virus-mediated cell death; 4 replicates) were also prepared. The cultures were then incubated at 37° C. in a humidified atmosphere of 5% CO2 in air for 5 d.\nA fresh solution of 5 mg/mL MTT was prepared in 0.01 M phosphate buffered saline, pH 7.2 and 20 microliters added to each culture. The cultures were further incubated as before for 2 h. They were then mixed by pipetting up and down and 170 microliters of Triton X-100 in acidified isopropanol (10% v/v Triton X-100 in 1:250 mixture of concentrated HCl in isopropanol). When the formazan deposit was fully solubilized by further mixing, the absorbance (OD) of the cultures was measured at 540 nm and 690 nm wavelength (690 nm readings were used as blanks for artifacts between wells). The percent protection for each treated culture was calculated using the equation: [formula]"}}, "data": [{"smiles": "Cc1c(CO)c(C(C)C)c(Sc2cc(Cl)cc(Cl)c2)n1C", "values": [{"measurement": "IC50", "setting": "HIV-1 RT", "value": 930, "unit": "nM"}, {"measurement": "IC50", "setting": "[1]", "value": 580, "unit": "nM"}]}, {"smiles": "Cc1c(CO)c(C(C)C)c(Sc2cccc(Cl)c2)n1Cc1cscn1", "values": [{"measurement": "IC50", "setting": "HIV-1 RT", "value": 4120, "unit": "nM"}]}, {"smiles": "CC(=O)/C=C/c1cc(C(C)C)c(Sc2cc(Cl)cc(Cl)c2)n1Cc1ccncc1", "values": [{"measurement": "IC50", "setting": "HIV-1 RT", "value": 972, "unit": "nM"}]}, {"smiles": "CCc1c(CO)c(C(C)C)c(Sc2cc(Cl)cc(Cl)c2)n1Cc1ccncc1", "values": [{"measurement": "IC50", "setting": "HIV-1 RT", "value": 43, "unit": "nM"}, {"measurement": "IC50", "setting": "[1]", "value": 11, "unit": "nM"}]}, {"smiles": "COCc1c(C(C)C)c(Sc2cc(Cl)cc(Cl)c2)n(Cc2ccncc2)c1C", "values": [{"measurement": "IC50", "setting": "HIV-1 RT", "value": 658, "unit": "nM"}, {"measurement": "IC50", "setting": "[1]", "value": 91, "unit": "nM"}]}, {"smiles": "CC(C)c1c(CO)c(CO)n(Cc2ccncc2)c1Sc1cc(Cl)cc(Cl)c1", "values": [{"measurement": "IC50", "setting": "HIV-1 RT", "value": 60, "unit": "nM"}, {"measurement": "IC50", "setting": "[1]", "value": 10, "unit": "nM"}]}, {"smiles": "CC(C)c1c(CO)c(C(C)C)n(Cc2ccncc2)c1Sc1cccc(Cl)c1", "values": [{"measurement": "IC50", "setting": "HIV-1 RT", "value": 272, "unit": "nM"}, {"measurement": "IC50", "setting": "[1]", "value": 110, "unit": "nM"}]}, {"smiles": "COC(=O)NCc1c(C(C)C)c(Sc2cc(Cl)cc(Cl)c2)n(Cc2ccncc2)c1C", "values": [{"measurement": "IC50", "setting": "HIV-1 RT", "value": 90, "unit": "nM"}]}, {"smiles": "CC(=O)NCc1c(C(C)C)c(Sc2cc(Cl)cc(Cl)c2)n(Cc2ccncc2)c1C", "values": [{"measurement": "IC50", "setting": "HIV-1 RT", "value": 198, "unit": "nM"}, {"measurement": "IC50", "setting": "[1]", "value": 32, "unit": "nM"}]}, {"smiles": "Cc1c(C(C)C)c(Sc2cc(Cl)cc(Cl)c2)n(Cc2ccncc2)c1C", "values": [{"measurement": "IC50", "setting": "HIV-1 RT", "value": 125, "unit": "nM"}, {"measurement": "IC50", "setting": "[1]", "value": 94, "unit": "nM"}]}, {"smiles": "Cc1c(C(N)=O)c(C(C)C)c(Sc2cc(Cl)cc(Cl)c2)n1Cc1ccncc1", "values": [{"measurement": "IC50", "setting": "HIV-1 RT", "value": 150, "unit": "nM"}, {"measurement": "IC50", "setting": "[1]", "value": 22, "unit": "nM"}]}, {"smiles": "CC(C)c1cc(CO)n(Cc2ccncc2)c1Sc1cc(Cl)cc(Cl)c1", "values": [{"measurement": "IC50", "setting": "HIV-1 RT", "value": 289, "unit": "nM"}, {"measurement": "IC50", "setting": "[1]", "value": 183, "unit": "nM"}]}, {"smiles": "Cc1c(C#N)c(-c2ccccc2)c(Sc2cc(Cl)cc(Cl)c2)n1Cc1ccncc1", "values": [{"measurement": "IC50", "setting": "HIV-1 RT", "value": 2450, "unit": "nM"}]}, {"smiles": "Cc1c(CO)c(C(C)C)c(Sc2cc(Cl)ccc2Cl)n1Cc1ccncc1", "values": [{"measurement": "IC50", "setting": "HIV-1 RT", "value": 86, "unit": "nM"}, {"measurement": "IC50", "setting": "[1]", "value": 69, "unit": "nM"}]}, {"smiles": "Cc1c(CO)c(C)n(Cc2ccncc2)c1Sc1cc(Cl)cc(Cl)c1", "values": [{"measurement": "IC50", "setting": "HIV-1 RT", "value": 287, "unit": "nM"}, {"measurement": "IC50", "setting": "[1]", "value": 49, "unit": "nM"}]}, {"smiles": "Cc1c(CO)c(C(C)C)c(Sc2ccc(F)cc2Cl)n1Cc1ccncc1", "values": [{"measurement": "IC50", "setting": "HIV-1 RT", "value": 5430, "unit": "nM"}]}, {"smiles": "Cc1c(CN=[N+]=[N-])c(C(C)C)c(Sc2cc(Cl)cc(Cl)c2)n1Cc1ccncc1", "values": [{"measurement": "IC50", "setting": "HIV-1 RT", "value": 91, "unit": "nM"}, {"measurement": "IC50", "setting": "[1]", "value": 16, "unit": "nM"}]}, {"smiles": "CC(C)c1cc(COC(N)=O)n(Cc2ccncc2)c1Sc1cc(Cl)cc(Cl)c1", "values": [{"measurement": "IC50", "setting": "HIV-1 RT", "value": 33, "unit": "nM"}, {"measurement": "IC50", "setting": "[1]", "value": 16, "unit": "nM"}]}, {"smiles": "Cc1c(CO)c(C(C)C)c(Sc2ccccc2)n1Cc1ccncc1", "values": [{"measurement": "IC50", "setting": "HIV-1 RT", "value": 260, "unit": "nM"}, {"measurement": "IC50", "setting": "[1]", "value": 11.5, "unit": "nM"}]}, {"smiles": "Cc1c(CO)c(-c2ccccc2)c(Sc2cc(Cl)cc(Cl)c2)n1Cc1ccncc1", "values": [{"measurement": "IC50", "setting": "HIV-1 RT", "value": 493, "unit": "nM"}, {"measurement": "IC50", "setting": "[1]", "value": 407, "unit": "nM"}]}, {"smiles": "Cc1c(CO)c(C(C)C)c(Sc2cc(Cl)cc(Cl)c2)n1Cc1cccnc1", "values": [{"measurement": "IC50", "setting": "HIV-1 RT", "value": 79, "unit": "nM"}, {"measurement": "IC50", "setting": "[1]", "value": 17.5, "unit": "nM"}]}, {"smiles": "Cc1cc(C(C)C)c(Sc2cc(Cl)cc(Cl)c2)n1Cc1ccncc1", "values": [{"measurement": "IC50", "setting": "HIV-1 RT", "value": 117, "unit": "nM"}, {"measurement": "IC50", "setting": "[1]", "value": 44, "unit": "nM"}]}, {"smiles": "Cc1c(CNC(=O)c2ccccc2)c(C(C)C)c(Sc2cc(Cl)cc(Cl)c2)n1Cc1ccncc1", "values": [{"measurement": "IC50", "setting": "HIV-1 RT", "value": 283, "unit": "nM"}, {"measurement": "IC50", "setting": "[1]", "value": 84, "unit": "nM"}]}]}
